Measured values as given in patent publication US9243002B2, “Tetracyclic heterocycle compounds and methods of use thereof for the treatment of hepatitis C” (priority 2013, dated 2016).

Experiments:
HCV genotype 1b replicon = assay: HCV replicon assay, genotype 1b (cell ELISA for NS3/4A); format: cell-based, hepatitis C virus; conditions: Hepatitis C virus, 96 h, read-out: 1b IC50 (nM), genotype 1b replicon cells, 96 hours incubation, NS3/4A ELISA
Method in brief: (§1)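 Stable replicon cells plated with a compound dilution series without G418 and incubated 96 h, then lysed. Replicon RNA measured indirectly by cell ELISA with an NS3/4A-specific antibody. IC50 calculated relative to DMSO control by four-parameter fit.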

HCV genotype 1a replicon = assay: HCV replicon assay, genotype 1a (cell ELISA for NS3/4A); format: cell-based, hepatitis C virus; conditions: Hepatitis C virus, 96 h, read-out: 1a IC50 (nM), genotype 1a replicon cells, 96 hours incubation, NS3/4A ELISA
Method in brief: as §1

In the case of `CNC(=O)c1c(-c2ccc(C)nc2)oc2cc(N(C)S(C)(=O)=O)c(-c3ccc4c(n3)-c3cc5c(F)cccc5n3CC(N3CC(F)C3)C4)cc12` (stereo not shown) [Example 71], the IC50 (HCV genotype 1b replicon) is reported as 42.2 nM and the IC50 (HCV genotype 1a replicon) is reported as 41.7 nM.

`CNC(=O)c1c(-c2ccc(F)cc2)oc2cc(N(C)S(C)(=O)=O)c(-c3ccc4c(n3)-c3cc5c(F)cccc5n3CCC4)cc12` [Example 72, 5-(12-fluoro-6,7-dihydro-5H-pyrido[2′,3′:3,4]azepino[1,2-a]indol-2-yl)-2-(4-fluorophenyl)-N-methyl-6-(N-methylmethylsulfonamido)benzofuran-3-carboxamide] showed an IC50 (HCV genotype 1b replicon) of 4.29 nM and an IC50 (HCV genotype 1a replicon) of 3.71 nM.

With `CNC(=O)c1c(-c2ccc(F)cc2)oc2cc(N(C)S(C)(=O)=O)c(-c3ccc4c(n3)-c3cc5c(C#N)cccc5n3CCC4)cc12` [Example 73] the IC50 (HCV genotype 1b replicon) was 2.78 nM and the IC50 (HCV genotype 1a replicon) was 2.01 nM.

`CNC(=O)c1c(-c2ccc(F)cc2)oc2cc(N(C)S(C)(=O)=O)c(-c3ccc4c(n3)-c3cc5c(F)cccc5n3C(=O)CC4)cc12` [Example 74, 5-(12-fluoro-7-oxo-6,7-dihydro-5H-pyrido[2′,3′:3,4]azepino[1,2-a]indol-2-yl)-2-(4-fluorophenyl)-N-methyl-6-(N-methylmethylsulfonamido)benzofuran-3-carboxamide] showed an IC50 (HCV genotype 1b replicon) of 11.4 nM and an IC50 (HCV genotype 1a replicon) of 8.2 nM.

With `CNC(=O)c1c(-c2ccc(F)cc2)oc2cc(N(C)S(C)(=O)=O)c(-c3ccc4c(n3)-c3c(C)c5ccccc5n3CC4)cc12` [Example 76, 2-(4-fluorophenyl)-N-methyl-5-(12-methyl-5,6-dihydroindolo[1,2-h][1,7]naphthyridin-2-yl)-6-(N-methylmethylsulfonamido)benzofuran-3-carboxamide] the IC50 (HCV genotype 1b replicon) was 194 nM and the IC50 (HCV genotype 1a replicon) was 1000 nM.

For `CNC(=O)c1c(-c2ccc(F)cc2)oc2cc(N(C)S(C)(=O)=O)c(-c3ccc4c(n3)-c3cc5ncccc5n3CC4)cc12` [Example 77], the IC50 (HCV genotype 1b replicon) was 4.03 nM and the IC50 (HCV genotype 1a replicon) was 27.9 nM.

Work on `CNC(=O)c1c(-c2ccc(F)cc2)oc2cc(N(C)S(C)(=O)=O)c(-c3ccc4c(n3)-c3cc5nc(OC)ccc5n3CC4)cc12` [Example 78] yielded an IC50 (HCV genotype 1b replicon) of 22.1 nM and an IC50 (HCV genotype 1a replicon) of 206 nM.

In the case of `CNC(=O)c1c(-c2ccc(F)cc2)oc2cc(N(C)S(C)(=O)=O)c(-c3ccc4ccn5c6ccccc6c(C)c5c4n3)cc12` [Example 79, 2-(4-fluorophenyl)-N-methyl-5-(12-methylindolo[1,2-h][1,7]naphthyridin-2-yl)-6-(N-methylmethylsulfonamido)benzofuran-3-carboxamide], the IC50 (HCV genotype 1b replicon) is reported as 77.3 nM and the IC50 (HCV genotype 1a replicon) is reported as 93.8 nM.

`CNC(=O)c1c(-c2ccc(F)cc2)oc2cc(N(C)S(C)(=O)=O)c(-c3ccc4ccn5c6ccc(OC)nc6cc5c4n3)cc12` [Example 80] gave an IC50 (HCV genotype 1b replicon) of 9.77 nM and an IC50 (HCV genotype 1a replicon) of 27.7 nM.

`CNC(=O)c1c(-c2ccc(F)cc2)oc2cc(N(C)S(C)(=O)=O)c(-c3ccc4ccn5c6ccc(O)nc6cc5c4n3)cc12` [Example 81] was tested, and the IC50 (HCV genotype 1b replicon) was 33.9 nM and the IC50 (HCV genotype 1a replicon) was 196 nM.

`CNC(=O)c1c(-c2ccc(F)cc2)oc2cc(N(C)S(C)(=O)=O)c(-c3ccc4ccn5c6cccc(F)c6cc5c4n3)cc12` [Example 82, 5-(11-fluoroindolo[1,2-h][1,7]naphthyridin-2-yl)-2-(4-fluorophenyl)-N-methyl-6-(N-methylmethylsulfonamido)benzofuran-3-carboxamide] showed an IC50 (HCV genotype 1b replicon) of 5.54 nM and an IC50 (HCV genotype 1a replicon) of 2.88 nM.

`CNC(=O)c1c(-c2ccc(F)cc2)oc2cc(N(C)S(C)(=O)=O)c(-c3ccc4ccn5c6cccc(C#N)c6cc5c4n3)cc12` [Example 83] was tested, and the IC50 (HCV genotype 1b replicon) was 3.44 nM and the IC50 (HCV genotype 1a replicon) was 1.49 nM.

In the case of `CNC(=O)c1c(-c2ccc(F)cc2F)oc2cc(N(C)S(C)(=O)=O)c(-c3ccc4ccn5c6cccc(F)c6cc5c4n3)cc12` [Example 84], the IC50 (HCV genotype 1b replicon) is reported as 6.41 nM and the IC50 (HCV genotype 1a replicon) is reported as 4.28 nM.

Work on `CNC(=O)c1c(-c2ccc(F)cc2)oc2cc(N(C)S(C)(=O)=O)c(-c3ccc4c(n3)-c3cc5c(F)cccc5n3CC4)cc12` [Example 85, 5-(11-fluoro-5,6-dihydroindolo[1,2-h][1,7]naphthyridin-2-yl)-2-(4-fluorophenyl)-N-methyl-6-(N-methylmethylsulfonamido)benzofuran-3-carboxamide] yielded an IC50 (HCV genotype 1b replicon) of 3.29 nM and an IC50 (HCV genotype 1a replicon) of 2.99 nM.

Molecule `CNC(=O)c1c(-c2ccc(F)cc2)oc2cc(N(C)S(C)(=O)=O)c(-c3ccc4c(n3)-c3cc5c(F)cccc5n3C4O)cc12` (stereo not shown) [Example 87, 5-(10-fluoro-5-hydroxy-5H-pyrido[2′,3′:3,4]pyrrolo[1,2-a]indol-2-yl)-2-(4-fluorophenyl)-N-methyl-6-(N-methylmethylsulfonamido)benzofuran-3-carboxamide] has an IC50 (HCV genotype 1b replicon) of 7.29 nM and an IC50 (HCV genotype 1a replicon) of 7.69 nM.

For `CNC(=O)c1c(-c2ccc(F)cc2)oc2cc(N(C)S(C)(=O)=O)c(-c3ccc4c(n3)-c3cc5c(F)cccc5n3C4)cc12` [Example 88, 5-(10-fluoro-5H-pyrido[2′,3′:3,4]pyrrolo[1,2-a]indol-2-yl)-2-(4-fluorophenyl)-N-methyl-6-(N-methylmethylsulfonamido)benzofuran-3-carboxamide], the IC50 (HCV genotype 1b replicon) was 9.43 nM and the IC50 (HCV genotype 1a replicon) was 8.73 nM.

With `CNC(=O)c1c(-c2ccc(F)cc2)oc2cc(N(C)S(C)(=O)=O)c(-c3ccc4c(n3)-c3cc5c(F)cccc5n3CC4F)cc12` (stereo not shown) [Example 89, 5-(5,11-difluoro-5,6-dihydroindolo[1,2-h][1,7]naphthyridin-2-yl)-2-(4-fluorophenyl)-N-methyl-6-(N-methylmethylsulfonamido)benzofuran-3-carboxamide] the IC50 (HCV genotype 1b replicon) was 5.49 nM and the IC50 (HCV genotype 1a replicon) was 2.12 nM.

In the case of `CNC(=O)c1c(-c2ccc(F)cc2)oc2cc(N(C)S(C)(=O)=O)c(-c3ccc4c(n3)-c3cc5c(F)cccc5n3C(CN3CC(F)C3)C4)cc12` (stereo not shown) [Example 90, 5-(11-fluoro-6-((3-fluoroazetidin-1-yl)methyl)-5,6-dihydroindolo[1,2-h][1,7]naphthyridin-2-yl)-2-(4-fluorophenyl)-N-methyl-6-(N-methylmethylsulfonamido)benzofuran-3-carboxamide], the IC50 (HCV genotype 1b replicon) is reported as 2.79 nM and the IC50 (HCV genotype 1a replicon) is reported as 7.23 nM.

Molecule `CNC(=O)c1c(-c2ccc(F)cc2)oc2cc(N(C)S(C)(=O)=O)c(-c3ccc4c(n3)-c3cc5c(F)cccc5n3C(CN3CC(F)(F)C3)C4)cc12` (stereo not shown) [Example 91] has an IC50 (HCV genotype 1b replicon) of 9.23 nM and an IC50 (HCV genotype 1a replicon) of 27.6 nM.

In the case of `CNC(=O)c1c(-c2ccc(F)cc2)oc2cc(N(C)S(C)(=O)=O)c(-c3ccc4c(n3)-c3cc5c(F)cccc5n3C(CN3CCC3)C4)cc12` (stereo not shown) [Example 92], the IC50 (HCV genotype 1b replicon) is reported as 2.55 nM and the IC50 (HCV genotype 1a replicon) is reported as 46.5 nM.

With `CNC(=O)c1c(-c2ccc(F)cc2)oc2cc(N(C)S(C)(=O)=O)c(-c3ccc4c(n3)-c3cc5c(F)cccc5n3C(CN3CC[C@@H](F)C3)C4)cc12` (stereo partly shown) [Example 94] the IC50 (HCV genotype 1b replicon) was 10.8 nM and the IC50 (HCV genotype 1a replicon) was 34 nM.

`CNC(=O)c1c(-c2ccc(F)cc2F)oc2cc(N(C)S(C)(=O)=O)c(-c3ccc4c(n3)-c3cc5c(F)cccc5n3C(CN3CC(F)C3)C4)cc12` (stereo not shown) [Example 95] showed an IC50 (HCV genotype 1b replicon) of 7.53 nM and an IC50 (HCV genotype 1a replicon) of 8.91 nM.

`CNC(=O)c1c(-c2ccc(F)cc2)oc2cc(N(C)S(C)(=O)=O)c(-c3ccc4c(n3)-c3cc5c(F)cccc5n3C(CF)C4)cc12` (stereo not shown) [Example 96, 5-(11-fluoro-6-(fluoromethyl)-5,6-dihydroindolo[1,2-h][1,7]naphthyridin-2-yl)-2-(4-fluorophenyl)-N-methyl-6-(N-methylmethylsulfonamido)benzofuran-3-carboxamide] was tested, and the IC50 (HCV genotype 1b replicon) was 3.18 nM and the IC50 (HCV genotype 1a replicon) was 7.89 nM.

With `CNC(=O)c1c(-c2ccc(F)cc2)oc2cc(N(C)S(C)(=O)=O)c(-c3ccc4c(n3)-c3cc5c(F)cccc5n3CC43CC3)cc12` [Example 97, 5-(11′-fluoro-6′H-spiro[cyclopropane-1,5′-indolo[1,2-h][1,7]naphthyridin]-2′-yl)-2-(4-fluorophenyl)-N-methyl-6-(N-methylmethylsulfonamido)benzofuran-3-carboxamide] the IC50 (HCV genotype 1b replicon) was 9.98 nM and the IC50 (HCV genotype 1a replicon) was 10.7 nM.

In the case of `CNC(=O)c1c(-c2ccc(F)cc2)oc2cc(N(C)S(C)(=O)=O)c(-c3ccc4c(n3)-c3cc5c(F)cccc5n3CC=C4)cc12` [Example 98, 5-(12-fluoro-7H-pyrido[2′,3′:3,4]azepino[1,2-a]indol-2-yl)-2-(4-fluorophenyl)-N-methyl-6-(N-methylmethylsulfonamido)benzofuran-3-carboxamide], the IC50 (HCV genotype 1b replicon) is reported as 8.65 nM and the IC50 (HCV genotype 1a replicon) is reported as 4.17 nM.

`CNC(=O)c1c(-c2ccc(F)cc2)oc2cc(N(C)S(C)(=O)=O)c(-c3ccc4c(n3)-c3cc5c(F)cccc5n3CCCC4)cc12` [Example 99, 5-(13-fluoro-5,6,7,8-tetrahydropyrido[2′,3′:3,4]azocino[1,2-a]indol-2-yl)-2-(4-fluorophenyl)-N-methyl-6-(N-methylmethylsulfonamido)benzofuran-3-carboxamide] gave an IC50 (HCV genotype 1b replicon) of 7.17 nM and an IC50 (HCV genotype 1a replicon) of 6.5 nM.
